Data published in paper PMC6437697 (Journal of Medicinal Chemistry, 2019).

Columns and labels:
Test in all cases: KINOMEscan
Assay type in all cases: binding
Conditions in all cases: read-out: % control activity remaining
[1] = target: T1, TBK1 (Homo sapiens, UniProt Q9UHD2)
T1 construct: purchased Eurofins DiscoverX KINOMEscan
T1 sequence (Q9UHD2 1-729): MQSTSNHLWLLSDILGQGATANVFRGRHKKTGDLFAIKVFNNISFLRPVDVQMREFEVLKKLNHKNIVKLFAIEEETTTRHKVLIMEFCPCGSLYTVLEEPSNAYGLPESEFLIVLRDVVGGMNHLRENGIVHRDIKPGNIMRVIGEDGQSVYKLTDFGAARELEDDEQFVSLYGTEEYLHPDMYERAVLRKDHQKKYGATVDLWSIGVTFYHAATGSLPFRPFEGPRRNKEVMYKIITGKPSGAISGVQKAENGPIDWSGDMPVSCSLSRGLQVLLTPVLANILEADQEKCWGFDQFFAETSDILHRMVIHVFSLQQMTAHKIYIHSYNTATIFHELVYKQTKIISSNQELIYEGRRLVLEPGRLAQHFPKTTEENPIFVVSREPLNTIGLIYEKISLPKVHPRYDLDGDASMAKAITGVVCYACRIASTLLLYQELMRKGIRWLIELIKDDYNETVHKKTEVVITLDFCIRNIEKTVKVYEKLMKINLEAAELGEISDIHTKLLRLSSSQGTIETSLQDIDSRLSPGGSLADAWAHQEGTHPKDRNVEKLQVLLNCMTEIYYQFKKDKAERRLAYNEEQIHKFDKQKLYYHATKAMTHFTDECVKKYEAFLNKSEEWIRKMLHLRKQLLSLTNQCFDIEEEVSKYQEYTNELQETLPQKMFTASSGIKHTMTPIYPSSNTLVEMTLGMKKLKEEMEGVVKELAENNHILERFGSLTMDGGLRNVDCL

[2] = target: T2, IGF1R (Homo sapiens, UniProt P08069)
T2 construct: purchased Eurofins DiscoverX KINOMEscan
T2 sequence (P08069 31-1367 limits assumed): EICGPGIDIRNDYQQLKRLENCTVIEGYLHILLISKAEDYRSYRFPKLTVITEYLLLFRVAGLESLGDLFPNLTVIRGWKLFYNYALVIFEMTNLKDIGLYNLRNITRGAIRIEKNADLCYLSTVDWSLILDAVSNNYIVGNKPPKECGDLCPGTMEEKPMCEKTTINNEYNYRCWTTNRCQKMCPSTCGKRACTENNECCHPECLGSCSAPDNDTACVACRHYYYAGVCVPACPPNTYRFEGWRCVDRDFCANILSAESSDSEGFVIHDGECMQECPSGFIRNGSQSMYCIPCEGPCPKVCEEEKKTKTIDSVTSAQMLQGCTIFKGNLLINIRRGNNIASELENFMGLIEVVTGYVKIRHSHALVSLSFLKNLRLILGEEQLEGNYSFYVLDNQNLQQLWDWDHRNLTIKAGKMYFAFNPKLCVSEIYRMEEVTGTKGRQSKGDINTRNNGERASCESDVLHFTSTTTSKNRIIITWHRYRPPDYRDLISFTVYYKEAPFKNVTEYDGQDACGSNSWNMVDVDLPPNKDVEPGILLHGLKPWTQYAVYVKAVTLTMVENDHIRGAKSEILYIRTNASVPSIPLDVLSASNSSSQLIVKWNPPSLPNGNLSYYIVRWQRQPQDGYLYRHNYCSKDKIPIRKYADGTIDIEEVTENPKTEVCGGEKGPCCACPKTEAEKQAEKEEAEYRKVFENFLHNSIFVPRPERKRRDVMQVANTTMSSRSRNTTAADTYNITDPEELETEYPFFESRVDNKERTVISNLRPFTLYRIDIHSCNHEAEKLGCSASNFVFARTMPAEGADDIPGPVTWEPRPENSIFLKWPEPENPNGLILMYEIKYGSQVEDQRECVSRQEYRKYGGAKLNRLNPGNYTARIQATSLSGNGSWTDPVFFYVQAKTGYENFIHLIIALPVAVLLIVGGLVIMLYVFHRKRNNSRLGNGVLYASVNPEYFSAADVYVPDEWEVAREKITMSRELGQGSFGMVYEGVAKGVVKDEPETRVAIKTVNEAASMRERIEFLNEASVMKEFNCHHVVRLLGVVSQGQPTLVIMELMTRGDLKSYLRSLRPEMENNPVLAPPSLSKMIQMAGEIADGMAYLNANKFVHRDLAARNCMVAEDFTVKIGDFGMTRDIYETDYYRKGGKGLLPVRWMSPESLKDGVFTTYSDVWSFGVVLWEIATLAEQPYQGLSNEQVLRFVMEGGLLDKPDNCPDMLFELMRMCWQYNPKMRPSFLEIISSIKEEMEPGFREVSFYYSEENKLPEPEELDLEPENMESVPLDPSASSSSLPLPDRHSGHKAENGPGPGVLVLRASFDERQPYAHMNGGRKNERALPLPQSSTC

[3] = target: T3, ABL1(F317L)-nonphosphorylated (Homo sapiens, UniProt P00519, F317L)
T3 construct: purchased Eurofins DiscoverX KINOMEscan

[4] = target: T4, DRAK1 (Homo sapiens, UniProt Q9UEE5)
T4 construct: purchased Eurofins DiscoverX KINOMEscan
T4 sequence (Q9UEE5 1-414): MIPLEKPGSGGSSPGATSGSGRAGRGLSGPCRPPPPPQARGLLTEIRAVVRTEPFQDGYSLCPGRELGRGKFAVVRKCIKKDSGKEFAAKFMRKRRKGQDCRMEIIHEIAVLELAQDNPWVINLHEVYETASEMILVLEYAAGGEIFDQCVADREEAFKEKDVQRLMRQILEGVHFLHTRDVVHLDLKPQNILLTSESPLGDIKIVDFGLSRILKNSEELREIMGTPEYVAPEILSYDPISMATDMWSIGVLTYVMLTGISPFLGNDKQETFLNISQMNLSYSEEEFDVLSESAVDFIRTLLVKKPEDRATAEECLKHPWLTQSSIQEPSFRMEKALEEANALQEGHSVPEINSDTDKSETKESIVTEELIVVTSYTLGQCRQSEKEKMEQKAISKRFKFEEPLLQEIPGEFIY

[5] = target: T5, AXL (Homo sapiens, UniProt P30530)
T5 construct: purchased Eurofins DiscoverX KINOMEscan
T5 sequence (P30530 26-894): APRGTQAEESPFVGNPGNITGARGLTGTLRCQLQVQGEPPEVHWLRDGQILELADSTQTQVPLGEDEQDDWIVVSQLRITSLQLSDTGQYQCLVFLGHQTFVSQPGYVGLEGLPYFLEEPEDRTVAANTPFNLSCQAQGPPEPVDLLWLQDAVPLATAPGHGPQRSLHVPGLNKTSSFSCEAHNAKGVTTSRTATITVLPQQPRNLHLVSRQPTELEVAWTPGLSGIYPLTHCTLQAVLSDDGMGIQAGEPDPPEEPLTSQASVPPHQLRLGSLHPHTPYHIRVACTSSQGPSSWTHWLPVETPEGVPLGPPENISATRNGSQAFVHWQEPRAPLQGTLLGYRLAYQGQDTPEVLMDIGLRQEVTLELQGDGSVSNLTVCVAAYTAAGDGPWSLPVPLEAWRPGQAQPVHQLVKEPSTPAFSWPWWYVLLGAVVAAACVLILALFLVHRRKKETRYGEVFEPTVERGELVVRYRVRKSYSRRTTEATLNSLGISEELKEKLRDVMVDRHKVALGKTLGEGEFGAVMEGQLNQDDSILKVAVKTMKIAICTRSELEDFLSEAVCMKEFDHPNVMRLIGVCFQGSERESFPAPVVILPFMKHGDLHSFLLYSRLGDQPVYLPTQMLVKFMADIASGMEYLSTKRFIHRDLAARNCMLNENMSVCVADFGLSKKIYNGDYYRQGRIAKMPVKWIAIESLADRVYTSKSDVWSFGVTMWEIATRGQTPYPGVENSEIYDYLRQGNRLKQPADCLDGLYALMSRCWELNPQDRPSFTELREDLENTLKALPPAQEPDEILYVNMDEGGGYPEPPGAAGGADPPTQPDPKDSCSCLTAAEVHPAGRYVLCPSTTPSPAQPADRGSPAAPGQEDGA

[6] = target: T6, INSR (Homo sapiens, UniProt P06213)
T6 construct: purchased Eurofins DiscoverX KINOMEscan

[7] = target: T7, MKK7 (Homo sapiens, UniProt O14733)
T7 construct: purchased Eurofins DiscoverX KINOMEscan
T7 sequence (O14733 1-419): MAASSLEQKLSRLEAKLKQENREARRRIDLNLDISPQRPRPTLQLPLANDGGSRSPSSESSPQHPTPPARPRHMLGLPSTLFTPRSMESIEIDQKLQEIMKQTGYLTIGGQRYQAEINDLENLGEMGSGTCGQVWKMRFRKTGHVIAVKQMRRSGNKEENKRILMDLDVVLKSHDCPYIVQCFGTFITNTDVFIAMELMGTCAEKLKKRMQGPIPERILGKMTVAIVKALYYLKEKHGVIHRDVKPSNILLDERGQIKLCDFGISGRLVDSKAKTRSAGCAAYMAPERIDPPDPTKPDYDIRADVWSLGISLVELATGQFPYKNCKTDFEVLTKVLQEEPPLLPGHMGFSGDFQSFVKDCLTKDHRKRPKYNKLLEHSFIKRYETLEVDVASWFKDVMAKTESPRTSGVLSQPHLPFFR

[8] = target: T8, CDK2 (Homo sapiens, UniProt P24941)
T8 construct: purchased Eurofins DiscoverX KINOMEscan

[9] = target: T9, EGFR(L858R,T790M) (Homo sapiens, UniProt P00533, L858R/T790M)
T9 construct: purchased Eurofins DiscoverX KINOMEscan
T9 sequence (P00533 25-1210 T790M/L858R limits assumed): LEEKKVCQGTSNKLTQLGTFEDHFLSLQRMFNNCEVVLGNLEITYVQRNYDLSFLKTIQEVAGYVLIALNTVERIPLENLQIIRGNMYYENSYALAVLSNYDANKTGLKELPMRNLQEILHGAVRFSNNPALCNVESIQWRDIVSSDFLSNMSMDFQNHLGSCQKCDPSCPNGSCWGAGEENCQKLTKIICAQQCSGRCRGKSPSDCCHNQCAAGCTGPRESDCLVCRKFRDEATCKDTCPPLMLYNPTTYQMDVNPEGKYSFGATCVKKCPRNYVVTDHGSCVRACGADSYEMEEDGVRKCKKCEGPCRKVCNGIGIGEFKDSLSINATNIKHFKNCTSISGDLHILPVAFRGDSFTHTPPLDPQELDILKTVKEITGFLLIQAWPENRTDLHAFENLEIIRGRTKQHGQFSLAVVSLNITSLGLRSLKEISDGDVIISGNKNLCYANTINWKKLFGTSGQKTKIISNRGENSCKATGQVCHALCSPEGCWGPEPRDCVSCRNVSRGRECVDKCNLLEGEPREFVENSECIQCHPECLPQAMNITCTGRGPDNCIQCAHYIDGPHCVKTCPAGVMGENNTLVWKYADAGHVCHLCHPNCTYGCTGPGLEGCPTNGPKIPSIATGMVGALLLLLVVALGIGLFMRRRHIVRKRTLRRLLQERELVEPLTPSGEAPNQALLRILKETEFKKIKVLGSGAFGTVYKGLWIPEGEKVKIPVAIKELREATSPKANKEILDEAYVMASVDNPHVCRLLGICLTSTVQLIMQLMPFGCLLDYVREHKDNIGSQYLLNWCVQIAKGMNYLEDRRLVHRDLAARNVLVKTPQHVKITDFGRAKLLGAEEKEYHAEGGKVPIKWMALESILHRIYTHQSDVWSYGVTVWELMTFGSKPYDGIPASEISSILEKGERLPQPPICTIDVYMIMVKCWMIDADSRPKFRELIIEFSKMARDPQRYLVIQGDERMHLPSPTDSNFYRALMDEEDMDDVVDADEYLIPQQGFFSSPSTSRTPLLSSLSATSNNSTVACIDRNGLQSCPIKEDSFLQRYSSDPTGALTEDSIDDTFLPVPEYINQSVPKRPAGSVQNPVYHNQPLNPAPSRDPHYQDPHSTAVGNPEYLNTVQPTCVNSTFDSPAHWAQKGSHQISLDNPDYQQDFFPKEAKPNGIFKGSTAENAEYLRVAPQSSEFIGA

[10] = target: T10, NIM1 (Homo sapiens, UniProt Q8IY84)
T10 construct: purchased Eurofins DiscoverX KINOMEscan
T10 sequence (Q8IY84 whole entry): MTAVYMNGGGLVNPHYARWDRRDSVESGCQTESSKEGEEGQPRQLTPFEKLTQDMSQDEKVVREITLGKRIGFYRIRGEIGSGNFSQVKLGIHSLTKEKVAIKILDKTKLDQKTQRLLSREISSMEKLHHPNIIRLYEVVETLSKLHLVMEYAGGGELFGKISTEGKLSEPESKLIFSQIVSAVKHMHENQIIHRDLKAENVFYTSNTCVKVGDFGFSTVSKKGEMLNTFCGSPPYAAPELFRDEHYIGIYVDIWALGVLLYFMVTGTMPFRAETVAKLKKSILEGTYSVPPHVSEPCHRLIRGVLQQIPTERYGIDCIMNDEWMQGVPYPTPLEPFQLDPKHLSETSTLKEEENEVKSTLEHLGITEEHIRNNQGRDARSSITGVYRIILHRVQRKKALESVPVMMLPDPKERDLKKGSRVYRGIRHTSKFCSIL

[11] = target: T11, MRCKA (Homo sapiens, UniProt Q5VT25)
T11 construct: purchased Eurofins DiscoverX KINOMEscan
T11 sequence (Q5VT25 whole entry): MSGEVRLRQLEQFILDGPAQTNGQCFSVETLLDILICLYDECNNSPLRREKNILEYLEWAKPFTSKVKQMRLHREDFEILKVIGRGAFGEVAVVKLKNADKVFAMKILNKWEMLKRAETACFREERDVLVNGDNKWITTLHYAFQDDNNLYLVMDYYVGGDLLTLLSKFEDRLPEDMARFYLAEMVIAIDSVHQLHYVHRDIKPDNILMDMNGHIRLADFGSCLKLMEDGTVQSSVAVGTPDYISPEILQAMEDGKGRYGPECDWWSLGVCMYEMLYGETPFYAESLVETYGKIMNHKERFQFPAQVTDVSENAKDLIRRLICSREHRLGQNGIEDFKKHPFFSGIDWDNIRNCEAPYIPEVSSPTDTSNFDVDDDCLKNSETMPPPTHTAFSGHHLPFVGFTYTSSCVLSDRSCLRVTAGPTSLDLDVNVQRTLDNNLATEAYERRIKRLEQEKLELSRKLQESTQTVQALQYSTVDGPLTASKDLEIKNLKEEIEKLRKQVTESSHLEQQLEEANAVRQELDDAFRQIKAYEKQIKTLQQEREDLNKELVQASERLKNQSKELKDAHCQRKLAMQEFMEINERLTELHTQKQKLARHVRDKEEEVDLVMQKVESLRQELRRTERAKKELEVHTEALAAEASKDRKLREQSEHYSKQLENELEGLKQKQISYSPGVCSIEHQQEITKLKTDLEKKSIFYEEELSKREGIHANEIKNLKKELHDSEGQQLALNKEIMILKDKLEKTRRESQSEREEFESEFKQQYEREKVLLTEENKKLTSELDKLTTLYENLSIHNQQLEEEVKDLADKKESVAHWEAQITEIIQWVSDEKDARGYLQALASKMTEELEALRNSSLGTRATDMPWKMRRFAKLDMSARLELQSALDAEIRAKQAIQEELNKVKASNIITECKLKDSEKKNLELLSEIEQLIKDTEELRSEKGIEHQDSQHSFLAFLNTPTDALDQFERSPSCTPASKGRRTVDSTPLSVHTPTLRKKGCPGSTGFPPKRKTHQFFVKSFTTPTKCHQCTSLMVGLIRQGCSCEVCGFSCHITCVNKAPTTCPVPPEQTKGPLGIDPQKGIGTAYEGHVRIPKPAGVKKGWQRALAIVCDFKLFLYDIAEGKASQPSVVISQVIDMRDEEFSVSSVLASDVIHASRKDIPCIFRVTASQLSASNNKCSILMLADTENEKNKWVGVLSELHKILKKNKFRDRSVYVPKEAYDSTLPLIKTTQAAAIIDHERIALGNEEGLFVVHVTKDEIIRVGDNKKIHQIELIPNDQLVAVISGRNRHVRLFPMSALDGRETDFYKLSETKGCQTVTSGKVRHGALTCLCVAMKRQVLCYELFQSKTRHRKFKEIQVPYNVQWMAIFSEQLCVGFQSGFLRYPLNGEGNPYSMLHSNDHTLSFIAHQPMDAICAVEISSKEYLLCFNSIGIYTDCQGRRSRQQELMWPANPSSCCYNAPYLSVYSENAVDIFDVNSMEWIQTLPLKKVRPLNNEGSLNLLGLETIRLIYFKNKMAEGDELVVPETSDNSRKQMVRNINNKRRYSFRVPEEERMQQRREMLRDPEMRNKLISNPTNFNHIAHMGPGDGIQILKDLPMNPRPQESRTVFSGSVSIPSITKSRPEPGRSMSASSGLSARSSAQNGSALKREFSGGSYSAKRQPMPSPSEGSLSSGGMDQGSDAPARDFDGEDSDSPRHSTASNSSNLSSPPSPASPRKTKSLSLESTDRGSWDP

[12] = target: T12, WNK1 (Homo sapiens, UniProt Q9H4A3)
T12 construct: purchased Eurofins DiscoverX KINOMEscan

SMILES	remaining binding at 1 µM [1] [%]	remaining binding at 1 µM [2] [%]	remaining binding at 1 µM [3] [%]	remaining binding at 1 µM [4] [%]	remaining binding at 1 µM [5] [%]	remaining binding at 1 µM [6] [%]	remaining binding at 1 µM [7] [%]	remaining binding at 1 µM [8] [%]	remaining binding at 1 µM [9] [%]	remaining binding at 1 µM [10] [%]	remaining binding at 1 µM [11] [%]	remaining binding at 1 µM [12] [%]
Clc1cc(NCC2CC2)c2ncc(-c3ccc4[nH]ncc4c3)n2n1 [compound 2, 6-Chloro-N-(cyclopropylmethyl)-3-(1H-indazol-5-yl)imidazo[1,2-b]pyridazin-8-amine]	71	100	68	18	84	99	92	88	82	97	90	89
O=C(CN1CCOCC1)N[C@H]1CC[C@H](Nc2cc(Cl)nn3c(-c4ccc5[nH]ncc5c4)cnc23)CC1 [compound 26]	90	100	26	20	88	91	100	95	90	91	82	100
CN1CCC(CNc2cc(Cl)nn3c(-c4cc5nc(Nc6ccccc6)[nH]c5cc4F)cnc23)CC1 [compound 31, 6-Chloro-3-(6-fluoro-2-(phenylamino)-1H-benzo[d]imidazol-5-yl)-N-((1-methylpiperidin-4-yl)methyl)imidazo[1,2-b]pyridazin-8-amine]	76	95	76	91	99	97	93	98	100	77	97	76
